# Assay results reported in patent US20250249056A1, “CANCER THERAPIES COMPRISING A NUCLEAR EXPORT INHIBITOR AND AN ONCOLYTIC VIRUS” (priority 2022, published 2025).
# Tested on: Colo205 cells
# Assay type: cell-based, human
structure (smiles),measurement,setting,value
O=C(/C=C\n1cnc(-c2cc(C(F)(F)F)cc(C(F)(F)F)c2)n1)NNc1cnccn1 [selinexor],"Differential protein expression, SCAF1",,100
same,"Differential protein expression, A2ML1","A8K2U0, selinexor-treated cytoplasm vs control cytoplasm",3.444
same,"Differential protein expression, PHF20L1","A8MW92, selinexor-treated cytoplasm vs control cytoplasm",0.01
same,"Differential protein expression, KPNA7","A9QM74, selinexor-treated cytoplasm vs control cytoplasm",0.149
same,"Differential protein expression, accession B2CWB5","B2CWB5 (gene symbol not given), selinexor-treated cytoplasm vs control cytoplasm",0.01
same,"Differential protein expression, m033R","B2CWE0, selinexor-treated cytoplasm vs control cytoplasm",0.01
same,"Differential protein expression, m047R","B2CWF4, selinexor-treated cytoplasm vs control cytoplasm",0.01
same,"Differential protein expression, m060R","B2CWG7, selinexor-treated cytoplasm vs control cytoplasm",0.01
same,"Differential protein expression, accession B2CWJ3","B2CWJ3 (gene symbol not given), selinexor-treated cytoplasm vs control cytoplasm",0.01
same,"Differential protein expression, accession B2CWL4","B2CWL4 (gene symbol not given), selinexor-treated cytoplasm vs control cytoplasm",100
same,"Differential protein expression, m149R","B2CWQ5, selinexor-treated cytoplasm vs control cytoplasm",100
same,"Differential protein expression, HNRNPCL2","B2RXH8, selinexor-treated cytoplasm vs control cytoplasm",2.92
same,"Differential protein expression, HNRNPCL3","B7ZW38, selinexor-treated cytoplasm vs control cytoplasm",2.963
same,"Differential protein expression, m107L","E2CZJ6, selinexor-treated cytoplasm vs control cytoplasm",100
same,"Differential protein expression, m126R","E2CZL5, selinexor-treated cytoplasm vs control cytoplasm",0.193
same,"Differential protein expression, m001R","E2CZP2, selinexor-treated cytoplasm vs control cytoplasm",3.839
same,"Differential protein expression, m009L","E2CZQ3, selinexor-treated cytoplasm vs control cytoplasm",0.01
same,"Differential protein expression, m055R","E2CZV0, selinexor-treated cytoplasm vs control cytoplasm",2.342
same,"Differential protein expression, m072L","E2CZW7, selinexor-treated cytoplasm vs control cytoplasm",3.124
same,"Differential protein expression, m086L","E2CZY1, selinexor-treated cytoplasm vs control cytoplasm",0.01
same,"Differential protein expression, AGRN","O00468, selinexor-treated cytoplasm vs control cytoplasm",0.494
same,"Differential protein expression, SDCBP","O00560, selinexor-treated cytoplasm vs control cytoplasm",2.743
same,"Differential protein expression, MPHOSPH10","O00566, selinexor-treated cytoplasm vs control cytoplasm",2.761
same,"Differential protein expression, UBE2C","O00762, selinexor-treated cytoplasm vs control cytoplasm",0.459
same,"Differential protein expression, SCD","O00767, selinexor-treated cytoplasm vs control cytoplasm",0.297
same,"Differential protein expression, M-T1","O10625, selinexor-treated cytoplasm vs control cytoplasm",3.839
same,"Differential protein expression, CLDN4","O14493, selinexor-treated cytoplasm vs control cytoplasm",10.645
same,"Differential protein expression, UTY","O14607, selinexor-treated cytoplasm vs control cytoplasm",0.01
same,"Differential protein expression, MEIS2","O14770, selinexor-treated cytoplasm vs control cytoplasm",0.01
same,"Differential protein expression, BACH1","O14867, selinexor-treated cytoplasm vs control cytoplasm",100
same,"Differential protein expression, IRF6","O14896, selinexor-treated cytoplasm vs control cytoplasm",2.466
same,"Differential protein expression, MYL12B","O14950, selinexor-treated cytoplasm vs control cytoplasm",2.249
same,"Differential protein expression, XPO1","O14980, selinexor-treated cytoplasm vs control cytoplasm",0.335
same,"Differential protein expression, MAPK13","O15264, selinexor-treated cytoplasm vs control cytoplasm",2.006
same,"Differential protein expression, DDX3Y","O15523, selinexor-treated cytoplasm vs control cytoplasm",100
same,"Differential protein expression, MAFG","O15525, selinexor-treated cytoplasm vs control cytoplasm",0.453
same,"Differential protein expression, CLDN3","O15551, selinexor-treated cytoplasm vs control cytoplasm",2.357
same,"Differential protein expression, SPINT1","O43278, selinexor-treated cytoplasm vs control cytoplasm",4.255
same,"Differential protein expression, KDELR3","O43731, selinexor-treated cytoplasm vs control cytoplasm",0.379
same,"Differential protein expression, ZBTB14","O43829, selinexor-treated cytoplasm vs control cytoplasm",0.01
same,"Differential protein expression, HNRNPCL1","O60812, selinexor-treated cytoplasm vs control cytoplasm",2.92
same,"Differential protein expression, NOS1AP","O75052, selinexor-treated cytoplasm vs control cytoplasm",0.01
same,"Differential protein expression, SIN3B","O75182, selinexor-treated cytoplasm vs control cytoplasm",0.01
same,"Differential protein expression, ZNF217","O75362, selinexor-treated cytoplasm vs control cytoplasm",2.042
same,"Differential protein expression, TAF5L","O75529, selinexor-treated cytoplasm vs control cytoplasm",100
same,"Differential protein expression, BANF1","O75531, selinexor-treated cytoplasm vs control cytoplasm",2.438
same,"Differential protein expression, PIAS2","O75928, selinexor-treated cytoplasm vs control cytoplasm",100
same,"Differential protein expression, ZFAND5","O76080, selinexor-treated cytoplasm vs control cytoplasm",0.48
same,"Differential protein expression, SUPT7L","O94864, selinexor-treated cytoplasm vs control cytoplasm",0.01
same,"Differential protein expression, HEXIM1","O94992, selinexor-treated cytoplasm vs control cytoplasm",3.29
same,"Differential protein expression, SVIL","O95425, selinexor-treated cytoplasm vs control cytoplasm",0.01
same,"Differential protein expression, NUDT3","O95989, selinexor-treated cytoplasm vs control cytoplasm",3.124
same,"Differential protein expression, DHFR","P00374, selinexor-treated cytoplasm vs control cytoplasm",0.419
same,"Differential protein expression, OAS1","P00973, selinexor-treated cytoplasm vs control cytoplasm",2.17
same,"Differential protein expression, TIMP1","P01033, selinexor-treated cytoplasm vs control cytoplasm",2.021
same,"Differential protein expression, CSTA","P01040, selinexor-treated cytoplasm vs control cytoplasm",3.956
same,"Differential protein expression, FOS","P01100, selinexor-treated cytoplasm vs control cytoplasm",0.01
same,"Differential protein expression, KRT14","P02533, selinexor-treated cytoplasm vs control cytoplasm",3.261
same,"Differential protein expression, KRT6A","P02538, selinexor-treated cytoplasm vs control cytoplasm",3.082
same,"Differential protein expression, APOD","P05090, selinexor-treated cytoplasm vs control cytoplasm",7.079
same,"Differential protein expression, S100A8","P05109, selinexor-treated cytoplasm vs control cytoplasm",3.524
same,"Differential protein expression, CENPB","P07199, selinexor-treated cytoplasm vs control cytoplasm",0.01
same,"Differential protein expression, PRSS2","P07478, selinexor-treated cytoplasm vs control cytoplasm",0.479
same,"Differential protein expression, HNRNPC","P07910, selinexor-treated cytoplasm vs control cytoplasm",2.948
same,"Differential protein expression, ASNS","P08243, selinexor-treated cytoplasm vs control cytoplasm",0.353
same,"Differential protein expression, NFIC","P08651, selinexor-treated cytoplasm vs control cytoplasm",0.01
same,"Differential protein expression, KRT16","P08779, selinexor-treated cytoplasm vs control cytoplasm",4.248
same,"Differential protein expression, TOP2A","P11388, selinexor-treated cytoplasm vs control cytoplasm",0.458
same,"Differential protein expression, CDK4","P11802, selinexor-treated cytoplasm vs control cytoplasm",0.445
same,"Differential protein expression, NEFH","P12036, selinexor-treated cytoplasm vs control cytoplasm",2.248
same,"Differential protein expression, CDH1","P12830, selinexor-treated cytoplasm vs control cytoplasm",4.064
same,"Differential protein expression, KRT10","P13645, selinexor-treated cytoplasm vs control cytoplasm",2.123
same,"Differential protein expression, KRT5","P13647, selinexor-treated cytoplasm vs control cytoplasm",2.042
same,"Differential protein expression, CD59","P13987, selinexor-treated cytoplasm vs control cytoplasm",2.269
same,"Differential protein expression, PLA2G2A","P14555, selinexor-treated cytoplasm vs control cytoplasm",2.128
same,"Differential protein expression, CCNB1","P14635, selinexor-treated cytoplasm vs control cytoplasm",0.377
same,"Differential protein expression, MYL6B","P14649, selinexor-treated cytoplasm vs control cytoplasm",2.392
same,"Differential protein expression, HNRNPL","P14866, selinexor-treated cytoplasm vs control cytoplasm",2.044
same,"Differential protein expression, GLUL","P15104, selinexor-treated cytoplasm vs control cytoplasm",2.48
same,"Differential protein expression, ATF2","P15336, selinexor-treated cytoplasm vs control cytoplasm",0.01
same,"Differential protein expression, FOSL2","P15408, selinexor-treated cytoplasm vs control cytoplasm",100
same,"Differential protein expression, H1-3","P16402, selinexor-treated cytoplasm vs control cytoplasm",14.354
same,"Differential protein expression, ZKSCAN1","P17029, selinexor-treated cytoplasm vs control cytoplasm",100
same,"Differential protein expression, SDC1","P18827, selinexor-treated cytoplasm vs control cytoplasm",2.678
same,"Differential protein expression, ATF1","P18846, selinexor-treated cytoplasm vs control cytoplasm",100
same,"Differential protein expression, MYL12A","P19105, selinexor-treated cytoplasm vs control cytoplasm",2.269
same,"Differential protein expression, IMPDH1","P20839, selinexor-treated cytoplasm vs control cytoplasm",0.485
same,"Differential protein expression, TGM1","P22735, selinexor-treated cytoplasm vs control cytoplasm",2.137
same,"Differential protein expression, MYL9","P24844, selinexor-treated cytoplasm vs control cytoplasm",2.253
same,"Differential protein expression, DNMT1","P26358, selinexor-treated cytoplasm vs control cytoplasm",0.424
same,"Differential protein expression, RBL1","P28749, selinexor-treated cytoplasm vs control cytoplasm",0.395
same,"Differential protein expression, GRN","P28799, selinexor-treated cytoplasm vs control cytoplasm",2.493
same,"Differential protein expression, KDM5A","P29375, selinexor-treated cytoplasm vs control cytoplasm",0.01
same,"Differential protein expression, SERPINB3","P29508, selinexor-treated cytoplasm vs control cytoplasm",34.048
same,"Differential protein expression, SLC7A1","P30825, selinexor-treated cytoplasm vs control cytoplasm",0.272
same,"Differential protein expression, S100A7","P31151, selinexor-treated cytoplasm vs control cytoplasm",2.547
same,"Differential protein expression, RRM2","P31350, selinexor-treated cytoplasm vs control cytoplasm",0.284
same,"Differential protein expression, CASP14","P31944, selinexor-treated cytoplasm vs control cytoplasm",2.655
same,"Differential protein expression, CDA","P32320, selinexor-treated cytoplasm vs control cytoplasm",2.571
same,"Differential protein expression, GBP1","P32455, selinexor-treated cytoplasm vs control cytoplasm",0.01
same,"Differential protein expression, KRT9","P35527, selinexor-treated cytoplasm vs control cytoplasm",0.486
same,"Differential protein expression, MYH9","P35579, selinexor-treated cytoplasm vs control cytoplasm",2.051
same,"Differential protein expression, MYH10","P35580, selinexor-treated cytoplasm vs control cytoplasm",2.213
same,"Differential protein expression, HSD17B2","P37059, selinexor-treated cytoplasm vs control cytoplasm",2.045
same,"Differential protein expression, FDFT1","P37268, selinexor-treated cytoplasm vs control cytoplasm",0.453
same,"Differential protein expression, PBX3","P40426, selinexor-treated cytoplasm vs control cytoplasm",0.01
same,"Differential protein expression, SLC1A4","P43007, selinexor-treated cytoplasm vs control cytoplasm",0.439
same,"Differential protein expression, MATR3","P43243, selinexor-treated cytoplasm vs control cytoplasm",5.731
same,"Differential protein expression, RFX3","P48380, selinexor-treated cytoplasm vs control cytoplasm",0.152
same,"Differential protein expression, SERPINB4","P48594, selinexor-treated cytoplasm vs control cytoplasm",5.894
same,"Differential protein expression, HNRNPA3","P51991, selinexor-treated cytoplasm vs control cytoplasm",2.069
same,"Differential protein expression, ZNF131","P52739, selinexor-treated cytoplasm vs control cytoplasm",0.01
same,"Differential protein expression, RBM5","P52756, selinexor-treated cytoplasm vs control cytoplasm",0.01
same,"Differential protein expression, PLK1","P53350, selinexor-treated cytoplasm vs control cytoplasm",0.01
same,"Differential protein expression, CEBPG","P53567, selinexor-treated cytoplasm vs control cytoplasm",0.01
same,"Differential protein expression, MAPK12","P53778, selinexor-treated cytoplasm vs control cytoplasm",2.006
same,"Differential protein expression, POLG","P54098, selinexor-treated cytoplasm vs control cytoplasm",0.27
same,"Differential protein expression, EPHB3","P54753, selinexor-treated cytoplasm vs control cytoplasm",0.496
same,"Differential protein expression, PKNOX1","P55347, selinexor-treated cytoplasm vs control cytoplasm",0.01
same,"Differential protein expression, MAZ","P56270, selinexor-treated cytoplasm vs control cytoplasm",0.01
same,"Differential protein expression, HDAC4","P56524, selinexor-treated cytoplasm vs control cytoplasm",0.458
same,"Differential protein expression, PCBP3","P57721, selinexor-treated cytoplasm vs control cytoplasm",2.306
same,"Differential protein expression, CKS1B","P61024, selinexor-treated cytoplasm vs control cytoplasm",0.422
same,"Differential protein expression, POLR2F","P61218, selinexor-treated cytoplasm vs control cytoplasm",2.135
same,"Differential protein expression, SNRPE","P62304, selinexor-treated cytoplasm vs control cytoplasm",2.173
same,"Differential protein expression, SNRPF","P62306, selinexor-treated cytoplasm vs control cytoplasm",2.172
same,"Differential protein expression, SNRPD1","P62314, selinexor-treated cytoplasm vs control cytoplasm",2.056
same,"Differential protein expression, SNRPD2","P62316, selinexor-treated cytoplasm vs control cytoplasm",2.406
same,"Differential protein expression, RHOB","P62745, selinexor-treated cytoplasm vs control cytoplasm",0.01
same,"Differential protein expression, ARF1","P84077, selinexor-treated cytoplasm vs control cytoplasm",2.133
same,"Differential protein expression, H3-3A; H3-3B","P84243, selinexor-treated cytoplasm vs control cytoplasm",3.295
same,"Differential protein expression, HSPG2","P98160, selinexor-treated cytoplasm vs control cytoplasm",0.441
same,"Differential protein expression, KRT24","Q2M2I5, selinexor-treated cytoplasm vs control cytoplasm",2.716
same,"Differential protein expression, SMU1","Q2TAY7, selinexor-treated cytoplasm vs control cytoplasm",2.21
same,"Differential protein expression, KRT71","Q3SY84, selinexor-treated cytoplasm vs control cytoplasm",4.935
same,"Differential protein expression, COA6","Q5JTJ3, selinexor-treated cytoplasm vs control cytoplasm",2.872
